From PubChem BioAssay (NCI)
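48-hour exposure; five concentrations; linearly interpolated endpoints. TGI: concentration producing complete growth inhibition.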

Columns and labels:
Test in all cases: inhibition of tumour cell growth, NCI panel, 48 h
LOX IMVI melanoma = test system: LOX IMVI melanoma
HT29 colon = test system: HT29 colon
UACC-62 melanoma = test system: UACC-62 melanoma
SK-MEL-5 melanoma = test system: SK-MEL-5 melanoma
786-0 renal = test system: 786-0 renal
NCI-H23 lung = test system: NCI-H23 lung
OVCAR-4 ovarian = test system: OVCAR-4 ovarian
TK-10 renal = test system: TK-10 renal
CAKI-1 renal = test system: CAKI-1 renal
MOLT-4 leukemia = test system: MOLT-4 leukemia
IGROV1 ovarian = test system: IGROV1 ovarian
SN12C renal = test system: SN12C renal
NCI/ADR-RES ovarian = test system: NCI/ADR-RES ovarian
RPMI-8226 leukemia = test system: RPMI-8226 leukemia
HL-60(TB) leukemia = test system: HL-60(TB) leukemia
SK-MEL-2 melanoma = test system: SK-MEL-2 melanoma
RXF 393 renal = test system: RXF 393 renal
DU-145 prostate = test system: DU-145 prostate
UACC-257 melanoma = test system: UACC-257 melanoma
SNB-19 CNS = test system: SNB-19 CNS
OVCAR-8 ovarian = test system: OVCAR-8 ovarian
U251 CNS = test system: U251 CNS
K-562 leukemia = test system: K-562 leukemia
SNB-75 CNS = test system: SNB-75 CNS
UO-31 renal = test system: UO-31 renal
MDA-MB-231 breast = test system: MDA-MB-231 breast
SW-620 colon = test system: SW-620 colon
HCT-116 colon = test system: HCT-116 colon
SK-MEL-28 melanoma = test system: SK-MEL-28 melanoma
SF-295 CNS = test system: SF-295 CNS
HCT-15 colon = test system: HCT-15 colon
SF-539 CNS = test system: SF-539 CNS
HOP-62 NSCLC = test system: HOP-62 NSCLC
A549 NSCLC = test system: A549 NSCLC
HCC-2998 colon = test system: HCC-2998 colon
M14 melanoma = test system: M14 melanoma
SK-OV-3 ovarian = test system: SK-OV-3 ovarian
MDA-N = test system: MDA-N
KM12 colon = test system: KM12 colon
NCI-H226 lung = test system: NCI-H226 lung
T-47D breast = test system: T-47D breast
COLO 205 colon = test system: COLO 205 colon
EKVX NSCLC = test system: EKVX NSCLC
HOP-92 NSCLC = test system: HOP-92 NSCLC
ACHN renal = test system: ACHN renal
NCI-H522 lung = test system: NCI-H522 lung
MDA-MB-435 = test system: MDA-MB-435
PC-3 prostate = test system: PC-3 prostate
MCF7 breast = test system: MCF7 breast
OVCAR-3 ovarian = test system: OVCAR-3 ovarian
CCRF-CEM leukemia = test system: CCRF-CEM leukemia
A498 renal = test system: A498 renal
MALME-3M melanoma = test system: MALME-3M melanoma

Measured: TGI

COc1ccc(Nc2c[nH]c(=O)[nH]c2=O)cc1
> 100 µM: all assays above
